Activity calls are given as the source filed them.
Experiments:
[1] = target: DNA (cytosine-5)-methyltransferase 1 (Homo sapiens, UniProt P26358); assay: inhibition of DNA methylation by DNMT1 – biochemical, fluorescent molecular beacon, confirmation (AID 602386); type: functional
[2] = target: T1, Caspase-6 (Homo sapiens, UniProt P55212); assay: inhibition of CASP6 peptide cleavage – biochemical, VEID-R110 fluorescence, cherry-pick, dose response (AID 720632)
T1 sequence (P55212 whole entry): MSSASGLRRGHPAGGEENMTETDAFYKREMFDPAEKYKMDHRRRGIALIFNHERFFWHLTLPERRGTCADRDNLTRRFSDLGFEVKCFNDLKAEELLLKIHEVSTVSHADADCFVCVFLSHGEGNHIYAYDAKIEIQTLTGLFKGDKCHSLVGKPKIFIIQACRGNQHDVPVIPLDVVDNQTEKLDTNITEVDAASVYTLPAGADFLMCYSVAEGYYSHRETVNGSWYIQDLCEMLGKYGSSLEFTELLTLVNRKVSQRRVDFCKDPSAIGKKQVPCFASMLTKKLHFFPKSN

[3] = tested on: INS1; assay: INS-1E survival protection against cytokine death – cell-based, luminescence, retest, dose response (AID 449756); type: functional; conditions: Rattus norvegicus;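 note: cell death triggered by IL-1 beta plus TNF-alpha plus IFN-gamma mixture; protective hits raise ATP signal compared with cytokine alone wells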
[4] = Luminescence Cell-Based Dose Response HTS to Identify Inhibitors of 5'UTR Stem-Loop Driven Prion Protein mRNA Translation in H4 Neuroglioblastoma Cells. [Related pubchem assays: 1827 (Project Summary), 1813 (Primary HTS)]; type: functional
[5] = target: T2, Heat shock factor protein 1 (Mus musculus, UniProt P38532); assay: enhancement of HSF1-driven luciferase signal – cell-based, NIH3T3, luminescence, dose retest, confirmation (AID 435004); type: functional;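 note: stress induced by proteasome inhibitor MG132 added 30 min after compound; luciferase reporter driven by HSF1 response element in NIH3T3 cells; actives raise luminescence as potentiators of the MG132 stress response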
T2 sequence (P38532 whole entry): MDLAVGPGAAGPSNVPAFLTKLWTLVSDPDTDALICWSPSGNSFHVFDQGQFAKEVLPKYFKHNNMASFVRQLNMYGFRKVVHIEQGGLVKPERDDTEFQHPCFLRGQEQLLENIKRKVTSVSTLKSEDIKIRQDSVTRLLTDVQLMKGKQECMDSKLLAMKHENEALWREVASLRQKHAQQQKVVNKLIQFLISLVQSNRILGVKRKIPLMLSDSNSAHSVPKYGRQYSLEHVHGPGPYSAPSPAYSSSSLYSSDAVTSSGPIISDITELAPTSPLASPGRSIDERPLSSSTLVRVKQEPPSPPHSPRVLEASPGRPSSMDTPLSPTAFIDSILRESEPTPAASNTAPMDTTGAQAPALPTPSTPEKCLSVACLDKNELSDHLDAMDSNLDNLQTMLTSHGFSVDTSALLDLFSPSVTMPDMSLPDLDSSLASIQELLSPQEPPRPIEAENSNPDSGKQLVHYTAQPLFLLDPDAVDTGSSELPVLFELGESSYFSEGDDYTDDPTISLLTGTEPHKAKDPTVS

[6] = luciferase reporter signal suppression in cells – H4 neuroglioma cells, luminescence, dose response (AID 1990); type: functional, cell-based
[7] = alpha-synuclein stem-loop luciferase translation blockers – H4 neuroglioma cells, luminescence, confirmation (AID 1988); type: functional, cell-based
[8] = HEK-293T viability loss after treatment – luminescence, T-cell screen hits, cytotoxicity control for TCR NF-kB inhibitor project, dose response (AID 489026); type: functional, cell-based;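 note: cells exposed to compound about 14 hours before the viability readout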
[9] = tested on: Escherichia coli; assay: microbe, parasite or virus in culture
[10] = target: 72 kDa type IV collagenase (Homo sapiens, UniProt P08253); assay: Dose Response validation of uHTS RPN11 inhibitor hits using a MMP-2 Fluorescence assay.; type: functional
[11] = target: Prothrombin (Bos taurus, UniProt P00735); assay: thrombin protease inhibitors – biochemical, fluorescence polarization, uHTS hits, dose response (AID 602369); type: functional
[12] = target: T3, RNA-binding protein pos-1 (Caenorhabditis elegans, UniProt G5EF15); assay: disruptors of C. elegans POS-1 RNA interaction – biochemical, fluorescence polarization, dose response (AID 1964);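 note: purified POS-1 fused to maltose binding protein made in E. coli; potency of compounds blocking POS-1 binding to fluorescent RNA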
T3 sequence (G5EF15 whole entry): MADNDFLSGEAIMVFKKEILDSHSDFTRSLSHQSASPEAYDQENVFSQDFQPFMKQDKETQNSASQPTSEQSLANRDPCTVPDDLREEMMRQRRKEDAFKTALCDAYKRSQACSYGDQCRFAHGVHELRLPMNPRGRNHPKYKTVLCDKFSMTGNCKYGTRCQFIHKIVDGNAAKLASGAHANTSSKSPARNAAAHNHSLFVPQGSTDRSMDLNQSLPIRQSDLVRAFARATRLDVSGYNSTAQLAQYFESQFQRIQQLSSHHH

[13] = target: 26S proteasome non-ATPase regulatory subunit 14 (Homo sapiens, UniProt O00487); assay: inhibition of proteasome subunit RPN11 – biochemical, fluorescence polarization, uHTS hits, confirmation (AID 602368); type: functional
[14] = target: T4, Zinc finger protein mex-5 (Caenorhabditis elegans, UniProt Q9XUB2); assay: potency of MEX-5 RNA-binding blockers – biochemical, C. elegans, fluorescence polarization, dose response (AID 1960)
T4 sequence (Q9XUB2 whole entry): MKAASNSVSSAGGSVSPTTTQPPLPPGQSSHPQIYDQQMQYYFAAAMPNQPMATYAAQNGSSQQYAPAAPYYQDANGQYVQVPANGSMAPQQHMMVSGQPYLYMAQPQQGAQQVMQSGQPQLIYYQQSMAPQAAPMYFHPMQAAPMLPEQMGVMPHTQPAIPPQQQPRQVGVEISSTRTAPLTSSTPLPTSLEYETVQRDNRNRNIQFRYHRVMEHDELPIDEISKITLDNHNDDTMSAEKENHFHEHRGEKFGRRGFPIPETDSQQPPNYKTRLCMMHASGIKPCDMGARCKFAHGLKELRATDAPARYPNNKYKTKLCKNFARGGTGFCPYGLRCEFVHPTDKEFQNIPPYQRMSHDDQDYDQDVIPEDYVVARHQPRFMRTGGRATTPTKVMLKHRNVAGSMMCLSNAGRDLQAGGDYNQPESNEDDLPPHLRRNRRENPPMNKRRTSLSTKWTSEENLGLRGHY

[15] = tested on: Jurkat; assay: SAR Analysis of small molecule inhibitors of T-cell specific antigen receptor-induced NF-kB activation in a Jurkat cell line using a luminescence assay - Set 2. [Related pubchem assays (depositor defined):AID435003, AID435012, AID465]; type: functional, cell-based; conditions: Homo sapiens
[16] = tested on: HEK293; assay: HEK293T cell viability loss, resazurin readout – resazurin fluorescence, cytotoxicity control for NF-kB activator project, SAR follow-up (AID 493251); type: functional, cell-based; conditions: Homo sapiens
[17] = tested on: HEK293; assay: SAR Analysis of small molecule inhibitors of T-cell specific antigen receptor-induced NF-kB activation in a HEK-293T cell line using a luminescence assay - Set 2. [Related pubchem assays (depositor defined):AID435003, AID435012, AID489026]; type: functional, cell-based; conditions: Homo sapiens
[18] = tested on: HEK293; assay: cells; type: functional, cell-based; conditions: Homo sapiens
[19] = tested on: HEK293; assay: NOD2 signaling inhibitors in MDP-stimulated cells, cell-based, uHTS, luminescence (AID 2001); type: functional; conditions: Homo sapiens
[20] = tested on: HEK293; assay: inhibition of NOD1-driven NF-kB reporter – cell-based, luminescence, uHTS, primary screen (AID 1578); type: functional; conditions: Homo sapiens
[21] = tested on: HEK293; assay: cells; type: functional, cell-based; conditions: Homo sapiens; remark: listed apart in the source
[22] = target: Melanocortin receptor 4 (Homo sapiens, UniProt P32245); type: functional, cell-based;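 note: Cell-based assay with luminescence read-out, confirmatory dose-response testing for agonist activity of biased ligands at MC4R; human U2OS cells with tagged receptor and beta-arrestin; potency of agonists that increase receptor coupling to beta-arrestin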
Melanocortin receptor 4, sequence (P32245 whole entry): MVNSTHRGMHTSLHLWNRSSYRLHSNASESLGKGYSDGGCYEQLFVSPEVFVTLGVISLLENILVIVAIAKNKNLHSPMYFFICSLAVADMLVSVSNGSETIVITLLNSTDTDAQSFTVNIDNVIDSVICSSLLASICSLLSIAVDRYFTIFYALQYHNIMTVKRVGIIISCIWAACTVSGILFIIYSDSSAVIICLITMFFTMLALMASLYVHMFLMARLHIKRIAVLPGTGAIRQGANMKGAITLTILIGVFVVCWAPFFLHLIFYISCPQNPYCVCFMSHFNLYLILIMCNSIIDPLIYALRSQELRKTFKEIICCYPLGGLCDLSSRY

DNA (cytosine-5)-methyltransferase 1, sequence (P26358 whole entry): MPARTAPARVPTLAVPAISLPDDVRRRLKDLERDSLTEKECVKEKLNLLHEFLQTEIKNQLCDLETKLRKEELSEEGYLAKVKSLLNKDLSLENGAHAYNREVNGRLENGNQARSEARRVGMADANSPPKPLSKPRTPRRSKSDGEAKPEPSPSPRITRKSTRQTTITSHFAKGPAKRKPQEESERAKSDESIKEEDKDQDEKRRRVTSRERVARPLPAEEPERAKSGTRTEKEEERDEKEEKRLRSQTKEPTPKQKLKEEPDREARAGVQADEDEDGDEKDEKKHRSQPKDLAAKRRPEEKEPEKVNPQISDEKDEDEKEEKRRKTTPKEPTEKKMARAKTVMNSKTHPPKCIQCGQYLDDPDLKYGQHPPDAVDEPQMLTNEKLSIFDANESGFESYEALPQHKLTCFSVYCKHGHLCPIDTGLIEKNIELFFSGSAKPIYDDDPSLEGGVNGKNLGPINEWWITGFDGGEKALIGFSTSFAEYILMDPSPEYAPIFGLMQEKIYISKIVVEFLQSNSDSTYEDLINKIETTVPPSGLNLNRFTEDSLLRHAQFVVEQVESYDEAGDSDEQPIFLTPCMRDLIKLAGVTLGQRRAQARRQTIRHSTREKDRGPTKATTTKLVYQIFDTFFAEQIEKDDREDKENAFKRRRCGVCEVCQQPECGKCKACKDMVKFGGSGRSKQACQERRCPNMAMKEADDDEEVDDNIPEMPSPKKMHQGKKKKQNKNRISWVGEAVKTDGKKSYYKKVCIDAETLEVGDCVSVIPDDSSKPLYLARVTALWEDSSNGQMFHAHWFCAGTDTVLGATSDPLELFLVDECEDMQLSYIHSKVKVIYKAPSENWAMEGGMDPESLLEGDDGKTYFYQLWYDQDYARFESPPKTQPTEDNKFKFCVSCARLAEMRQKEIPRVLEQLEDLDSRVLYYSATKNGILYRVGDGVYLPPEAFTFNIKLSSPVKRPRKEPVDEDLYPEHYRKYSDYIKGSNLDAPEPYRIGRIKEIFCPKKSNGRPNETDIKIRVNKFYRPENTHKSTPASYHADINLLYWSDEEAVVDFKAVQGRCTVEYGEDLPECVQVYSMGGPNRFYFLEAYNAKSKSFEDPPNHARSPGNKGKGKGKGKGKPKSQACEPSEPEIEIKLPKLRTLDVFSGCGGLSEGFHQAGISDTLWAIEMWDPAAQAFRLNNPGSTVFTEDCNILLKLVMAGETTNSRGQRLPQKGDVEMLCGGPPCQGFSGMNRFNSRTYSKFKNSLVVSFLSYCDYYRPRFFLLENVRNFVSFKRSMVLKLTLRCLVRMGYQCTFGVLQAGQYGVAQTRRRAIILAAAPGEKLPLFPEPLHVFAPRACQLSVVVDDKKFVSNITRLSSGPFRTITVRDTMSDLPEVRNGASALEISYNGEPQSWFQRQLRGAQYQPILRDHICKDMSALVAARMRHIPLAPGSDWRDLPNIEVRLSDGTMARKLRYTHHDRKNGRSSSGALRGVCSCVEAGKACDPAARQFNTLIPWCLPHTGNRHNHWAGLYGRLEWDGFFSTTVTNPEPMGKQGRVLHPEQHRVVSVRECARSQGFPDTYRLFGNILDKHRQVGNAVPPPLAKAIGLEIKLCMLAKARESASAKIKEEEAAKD
26S proteasome non-ATPase regulatory subunit 14, sequence (O00487 whole entry): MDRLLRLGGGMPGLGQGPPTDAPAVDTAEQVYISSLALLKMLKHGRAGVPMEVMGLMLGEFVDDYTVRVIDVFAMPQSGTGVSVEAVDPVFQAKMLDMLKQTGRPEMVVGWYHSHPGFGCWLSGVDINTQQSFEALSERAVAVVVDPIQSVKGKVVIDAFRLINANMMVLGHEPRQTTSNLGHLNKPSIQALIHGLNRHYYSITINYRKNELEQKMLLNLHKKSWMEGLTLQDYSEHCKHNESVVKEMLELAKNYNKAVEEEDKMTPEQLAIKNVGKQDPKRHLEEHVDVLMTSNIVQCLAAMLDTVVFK
72 kDa type IV collagenase, sequence (P08253 whole entry): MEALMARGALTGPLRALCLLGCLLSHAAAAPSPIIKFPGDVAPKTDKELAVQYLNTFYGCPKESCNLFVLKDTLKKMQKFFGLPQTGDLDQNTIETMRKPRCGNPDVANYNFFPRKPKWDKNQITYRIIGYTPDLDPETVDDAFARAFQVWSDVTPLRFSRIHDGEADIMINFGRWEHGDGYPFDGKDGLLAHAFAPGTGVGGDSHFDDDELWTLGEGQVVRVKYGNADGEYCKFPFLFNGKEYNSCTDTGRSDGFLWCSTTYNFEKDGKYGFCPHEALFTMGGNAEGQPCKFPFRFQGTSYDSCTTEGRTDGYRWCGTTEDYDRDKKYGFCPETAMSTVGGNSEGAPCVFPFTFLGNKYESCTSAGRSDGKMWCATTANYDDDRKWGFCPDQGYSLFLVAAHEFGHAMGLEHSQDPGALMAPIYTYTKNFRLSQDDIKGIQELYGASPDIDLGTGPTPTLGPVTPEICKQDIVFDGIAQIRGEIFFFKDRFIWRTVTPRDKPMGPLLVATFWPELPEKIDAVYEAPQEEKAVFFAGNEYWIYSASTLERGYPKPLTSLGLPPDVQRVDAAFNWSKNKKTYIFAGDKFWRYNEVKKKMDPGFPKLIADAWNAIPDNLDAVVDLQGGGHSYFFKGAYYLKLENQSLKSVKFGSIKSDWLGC

With COc1ccc(S(=O)(=O)N2CCN(C(=O)C3COc4ccccc4O3)CC2)cc1 (configuration not stated) the IC50 [1] was 5.82 µM (active) and the AC50 [2] was 0.685 µM (active).
For O=[N+]([O-])c1ccc(-c2nc(C(Cl)Cl)c3ccccc3n2)cc1, the AC50 [3] was 1.89 µM (active), the EC50 [4] was 0.407 µM (active) and the EC50 [5] was > 260 µM (inconclusive). The EC50 [6] was 1.79 µM (active), the EC50 [7] was 0.336 µM (active) and the IC50 [8] was > 80 µM (inactive).
With CC(C)(C)OC(=O)NCC(=O)N1CCC(C(=O)O)CC1 the AC50 [9] was 26.6 µM (active).
In the case of Cc1cc(C)c2c(=O)[nH]c(=O)n(Cc3ccccc3)c2n1, the IC50 [10] is reported as > 100 µM (inactive), the IC50 [11] is reported as 46.6 µM (active) and the EC50 [12] is reported as > 300 µM (not active). For the same molecule, the IC50 [13] was 38.4 µM (active) and the EC50 [14] was > 300 µM (not active).
With CCOc1ccc(C(=O)Nc2ccc(NC(=O)c3cc4ccccc4o3)cc2)cc1[N+](=O)[O-] the IC50 [15] was 48.8 µM (inactive), the IC50 [16] was > 80 µM (inactive) and the IC50 [17] was > 80 µM (inactive).
For CCc1cc(C(=O)NC2CCCN(Cc3ccccc3F)C2)n(C)n1 (configuration not stated), the IC50 [18] was 16.5 µM (active), the IC50 [19] was > 20 µM (inactive) and the EC50 [20] was 9.78 µM (active). The IC50 [21] was > 20 µM (inactive).
For CC(C)c1ccc(NS(=O)(=O)c2ccc(-n3cccn3)cc2)cc1, the EC50 [22] was > 89.2 µM (inactive).
